Literature values, collected in patent US20250345461A1, “METHOD FOR REPAIRING HAIR CYCLE-RELATED GENES AND METHOD FOR TREATING HAIR CYCLE-RELATED DISEASES USING MIR-520D-5P” (LIVIUS PTE. LTD., priority 2021, published 2025).
Structures can show the parent of a compound that is named as a salt. Where two headings read alike, the source gives them in different places.

CC(C)NCC(O)COc1ccc(CCOCC2CC2)cc1 (stereo not drawn) [Betaxolol]
Maximum effective blood concentration at the time of administration or concentration in an external preparation in known indications (Essential hypertension, parenchymal renal hypertension, angina, glaucoma, ocular hypertension): Administration: 41.8 ng/mL

C=CCOc1ccccc1OCC(O)CNC(C)C (stereo not drawn) [Oxprenolol]
Maximum effective blood concentration at the time of administration or concentration in an external preparation in known indications (Tachyarrhythmia, angina): Administration: 30.18 μg/μL

CCCCC(CC)CNC(=N)NC(=N)NCCCCCCNC(=N)NC(=N)NCC(CC)CCCC (stereo not drawn) [Alexidine]
Inhibition of cancer growth (concentration in known indications) (Inhibition of cancer growth): Inhibition of cancer growth: 1 mM

Colistin
Maximum effective blood concentration at the time of administration or concentration in an external preparation in known indications (Escherichia coli, Shigella, multidrug-resistant Pseudomonas aeruginosa, infectious enteritis): Administration: 4.4 μg/mL

CC(C)NCC(O)COc1ccc(COCCOC(C)C)cc1 (stereo not drawn) [Bisoprolol, Bisoprolol fumarate]
Maximum effective blood concentration at the time of administration or concentration in an external preparation in known indications (Chronic heart failure due to essential hypertension, angina, ischemic heart disease, and dilated cardiomyopathy): Administration: 100 ng/mL

CCCNC(=O)NS(=O)(=O)c1ccc(Cl)cc1 [Chlorpropamide]
Maximum effective blood concentration at the time of administration or concentration in an external preparation in known indications (Type 2 diabetes): Administration: 30 μg/mL

CCOc1nc2cccc(C(=O)O)c2n1Cc1ccc(-c2ccccc2-c2nnn[nH]2)cc1 [Candesartan]
Maximum effective blood concentration at the time of administration or concentration in an external preparation in known indications (Hypertension): Administration: 75 ng/mL

C=C(CC)C(=O)c1ccc(OCC(=O)O)c(Cl)c1Cl [Ethacrynic acid]
Maximum effective blood concentration at the time of administration or concentration in an external preparation in known indications (Edematous diseases): Administration: 100 μM

CN[C@H](CC(C)C)C(=O)N[C@H]1C(=O)N[C@@H](CC(N)=O)C(=O)N[C@H]2C(=O)N[C@H]3C(=O)N[C@H](C(=O)N[C@H](C(=O)O)c4cc(O)cc(O)c4-c4cc3ccc4O)[C@H](O)c3ccc(c(Cl)c3)Oc3cc2cc(c3O[C@@H]2O[C@H](CO)[C@@H](O)[C@H](O)[C@H]2O[C@H]2C[C@](C)(N)[C@H](O)[C@H](C)O2)Oc2ccc(cc2Cl)[C@H]1O [Vancomycin]
Maximum effective blood concentration at the time of administration or concentration in an external preparation in known indications (MRSA infection): Administration: 30 μg/mL
